In ChEMBL document CHEMBL2413072, “Synthesis and in vitro anticancer studies of novel C-2 arylidene congeners of lantadenes” (2013):

How the values were obtained:
Format in all cases: functional
BT-549 [1] = experiment: Growth inhibition of human BT549 cells assessed as growth inhibition at 10 uM by sulforhodamine B assay; settings: read-out: GI
M14 = experiment: Growth inhibition of human M14 cells assessed as growth inhibition at 10 uM by sulforhodamine B assay; settings: read-out: GI
MCF7 [2] = experiment: Growth inhibition of human MCF7 cells assessed as cell growth at 10 uM by sulforhodamine B assay; settings: read-out: Activity
T47D [3] = experiment: Growth inhibition of human T47D cells assessed as cell growth at 10 uM by sulforhodamine B assay; settings: read-out: Activity
SK-MEL-2 = experiment: Growth inhibition of human SK-MEL-2 cells assessed as growth inhibition at 10 uM by sulforhodamine B assay; settings: read-out: GI
UACC-257 = experiment: Growth inhibition of human UACC257 cells assessed as growth inhibition at 10 uM by sulforhodamine B assay; settings: read-out: GI
U-251 [4] = experiment: Growth inhibition of human U251 cells assessed as growth inhibition at 10 uM by sulforhodamine B assay; settings: read-out: GI
SR = experiment: Growth inhibition of human SR cells assessed as growth inhibition at 10 uM by sulforhodamine B assay; settings: read-out: GI
KM12 [5] = experiment: Growth inhibition of human KM12 cells assessed as cell growth at 10 uM by sulforhodamine B assay; settings: read-out: Activity
[6] = Growth inhibition of human HCC2998 cells assessed as growth inhibition at 10 uM by sulforhodamine B assay; settings: HCC 2998, read-out: GI
SNB-75 = experiment: Growth inhibition of human SNB75 cells assessed as growth inhibition at 10 uM by sulforhodamine B assay; settings: read-out: GI
HOP-92 = experiment: Growth inhibition of human HOP92 cells assessed as cell growth at 10 uM by sulforhodamine B assay; settings: read-out: Activity
T47D [7] = experiment: Growth inhibition of human T47D cells assessed as growth inhibition at 10 uM by sulforhodamine B assay; settings: read-out: GI
MCF7 [8] = experiment: Growth inhibition of human MCF7 cells assessed as growth inhibition at 10 uM by sulforhodamine B assay; settings: read-out: GI
U-251 [9] = experiment: Growth inhibition of human U251 cells assessed as cell growth at 10 uM by sulforhodamine B assay; settings: read-out: Activity
CAKI-1 = experiment: Growth inhibition of human CAKI-1 cells assessed as growth inhibition at 10 uM by sulforhodamine B assay; settings: read-out: GI
SK-MEL-5 = experiment: Growth inhibition of human SK-MEL-5 cells assessed as cell growth at 10 uM by sulforhodamine B assay; settings: read-out: Activity
786-0 = experiment: Growth inhibition of human 786-0 cells assessed as cell growth at 10 uM by sulforhodamine B assay; settings: read-out: Activity
BT-549 [10] = experiment: Growth inhibition of human BT549 cells assessed as cell growth at 10 uM by sulforhodamine B assay; settings: read-out: Activity
SNB-19 = experiment: Growth inhibition of human SNB19 cells assessed as growth inhibition at 10 uM by sulforhodamine B assay; settings: read-out: GI
KM12 [11] = experiment: Growth inhibition of human KM12 cells assessed as growth inhibition at 10 uM by sulforhodamine B assay; settings: read-out: GI
DU-145 = experiment: Growth inhibition of human DU145 cells assessed as growth inhibition at 10 uM by sulforhodamine B assay; settings: read-out: GI
[12] = Growth inhibition of human NCI-ADR-RES cells assessed as growth inhibition at 10 uM by sulforhodamine B assay; settings: read-out: GI
OVCAR-3 = experiment: Growth inhibition of human OVCAR3 cells assessed as cell growth at 10 uM by sulforhodamine B assay; settings: read-out: Activity
NCI-H322M = experiment: Growth inhibition of human NCI-H322M cells assessed as cell growth at 10 uM by sulforhodamine B assay; settings: read-out: Activity
SN12C = experiment: Growth inhibition of human SN12C cells assessed as cell growth at 10 uM by sulforhodamine B assay; settings: read-out: Activity
SF-539 [13] = experiment: Growth inhibition of human SF539 cells assessed as growth inhibition at 10 uM by sulforhodamine B assay; settings: read-out: GI
UO-31 = experiment: Growth inhibition of human UO31 cells assessed as growth inhibition at 10 uM by sulforhodamine B assay; settings: read-out: GI
NCI-H23 = experiment: Growth inhibition of human NCI-H23 cells assessed as cell growth at 10 uM by sulforhodamine B assay; settings: read-out: Activity
COLO 205 = experiment: Growth inhibition of human COLO205 cells assessed as growth inhibition at 10 uM by sulforhodamine B assay; settings: read-out: GI
MDA-MB-231 [14] = experiment: Growth inhibition of human MDA-MB-231 cells assessed as growth inhibition at 10 uM by sulforhodamine B assay; settings: read-out: GI
A549 = experiment: Growth inhibition of human A549/ATCC cells assessed as growth inhibition at 10 uM by sulforhodamine B assay; settings: read-out: GI
SF-268 = experiment: Growth inhibition of human SF268 cells assessed as growth inhibition at 10 uM by sulforhodamine B assay; settings: read-out: GI
MDA-MB-435 = experiment: Growth inhibition of human MDA-MB-435 cells assessed as growth inhibition at 10 uM by sulforhodamine B assay; settings: read-out: GI
NCI-H226 = experiment: Growth inhibition of human NCI-H226 cells assessed as cell growth at 10 uM by sulforhodamine B assay; settings: read-out: Activity
RXF 393 = experiment: Growth inhibition of human RXF393 cells assessed as cell growth at 10 uM by sulforhodamine B assay; settings: read-out: Activity
SF-539 [15] = experiment: Growth inhibition of human SF539 cells assessed as cell growth at 10 uM by sulforhodamine B assay; settings: read-out: Activity
UACC-62 = experiment: Growth inhibition of human UACC62 cells assessed as cell growth at 10 uM by sulforhodamine B assay; settings: read-out: Activity
HT-29 = experiment: Growth inhibition of human HT-29 cells assessed as cell growth at 10 uM by sulforhodamine B assay; settings: read-out: Activity
PC-3 [16] = experiment: Growth inhibition of human PC3 cells assessed as cell growth at 10 uM by sulforhodamine B assay; settings: read-out: Activity
SK-MEL-28 = experiment: Growth inhibition of human SK-MEL-28 cells assessed as growth inhibition at 10 uM by sulforhodamine B assay; settings: read-out: GI
NCI-H522 = experiment: Growth inhibition of human NCI-H522 cells assessed as growth inhibition at 10 uM by sulforhodamine B assay; settings: read-out: GI
MDA-MB-231 [17] = experiment: Growth inhibition of human MDA-MB-231 cells assessed as cell growth at 10 uM by sulforhodamine B assay; settings: read-out: Activity
ACHN = experiment: Growth inhibition of human ACHN cells assessed as cell growth at 10 uM by sulforhodamine B assay; settings: read-out: Activity
LOX IMVI = experiment: Growth inhibition of human LOXIMVI cells assessed as cell growth at 10 uM by sulforhodamine B assay; settings: read-out: Activity
[18] = Growth inhibition of human Hs 578T cells assessed as cell growth at 10 uM by sulforhodamine B assay; settings: read-out: Activity
[19] = Growth inhibition of human EKVX cells assessed as cell growth at 10 uM by sulforhodamine B assay; settings: read-out: Activity
K562 = experiment: Growth inhibition of human K562 cells assessed as cell growth at 10 uM by sulforhodamine B assay; settings: read-out: Activity
PC-3 [20] = experiment: Growth inhibition of human PC3 cells assessed as growth inhibition at 10 uM by sulforhodamine B assay; settings: read-out: GI

## CC1(C)C[C@@H](O)[C@]2(C(=O)O)CC[C@]3(C)C(=CC[C@@H]4[C@@]5(C)CCC(=O)C(C)(C)[C@@H]5CC[C@]43C)[C@@H]2C1
BT-549 [1]
  inhibition of growth at 10 µM: 10.1%
M14
  inhibition of growth at 10 µM: < 10%
MCF7 [2]
  growth at 10 µM: 81.4%
T47D [3]
  growth at 10 µM: 80.8%
SK-MEL-2
  inhibition of growth at 10 µM: < 10%
UACC-257
  inhibition of growth at 10 µM: < 10%
U-251 [4]
  inhibition of growth at 10 µM: 10.8%
SR
  inhibition of growth at 10 µM: 16.3%
KM12 [5]
  growth at 10 µM: 87.7%
[6]
  inhibition of growth at 10 µM: < 10%
SNB-75
  inhibition of growth at 10 µM: < 10%
HOP-92
  growth at 10 µM: 75.4%
T47D [7]
  inhibition of growth at 10 µM: 19.2%
MCF7 [8]
  inhibition of growth at 10 µM: 18.6%
U-251 [9]
  growth at 10 µM: 89.2%
CAKI-1
  inhibition of growth at 10 µM: 15.2%
SK-MEL-5
  growth at 10 µM: 87.8%
786-0
  growth at 10 µM: 86.2%
BT-549 [10]
  growth at 10 µM: 89.9%
SNB-19
  inhibition of growth at 10 µM: < 10%
KM12 [11]
  inhibition of growth at 10 µM: 12.3%
DU-145
  inhibition of growth at 10 µM: < 10%
[12]
  inhibition of growth at 10 µM: < 10%
OVCAR-3
  growth at 10 µM: 104%
NCI-H322M
  growth at 10 µM: 97.5%
SN12C
  growth at 10 µM: 83.3%
SF-539 [13]
  inhibition of growth at 10 µM: < 10%
UO-31
  inhibition of growth at 10 µM: 13.9%
NCI-H23
  growth at 10 µM: 92.3%
COLO 205
  inhibition of growth at 10 µM: < 10%
MDA-MB-231 [14]
  inhibition of growth at 10 µM: < 10%
A549
  inhibition of growth at 10 µM: 21%
SF-268
  inhibition of growth at 10 µM: < 10%
MDA-MB-435
  inhibition of growth at 10 µM: < 10%
NCI-H226
  growth at 10 µM: 103%
RXF 393
  growth at 10 µM: 112%
SF-539 [15]
  growth at 10 µM: 106%
UACC-62
  growth at 10 µM: 80.5%
HT-29
  growth at 10 µM: 83.2%
PC-3 [16]
  growth at 10 µM: 59.3%
SK-MEL-28
  inhibition of growth at 10 µM: < 10%
NCI-H522
  inhibition of growth at 10 µM: 19.1%
MDA-MB-231 [17]
  growth at 10 µM: 91.3%
ACHN
  growth at 10 µM: 91.8%
LOX IMVI
  growth at 10 µM: 93.2%
[18]
  growth at 10 µM: 99.3%
[19]
  growth at 10 µM: 99.2%
K562
  growth at 10 µM: 76.8%
PC-3 [20]
  inhibition of growth at 10 µM: 40.7%

## C/C=C(/C)C(=O)O[C@@H]1CC(C)(C)C[C@H]2C3=CC[C@@H]4[C@@]5(C)CCC(=O)C(C)(C)[C@@H]5CC[C@@]4(C)[C@]3(C)CC[C@@]12C(=O)O [LANTADENE A]
BT-549 [1]
  inhibition of growth at 10 µM: 56%
M14
  inhibition of growth at 10 µM: 36.2%
MCF7 [2]
  growth at 10 µM: 54.7%
T47D [3]
  growth at 10 µM: 63.9%
SK-MEL-2
  inhibition of growth at 10 µM: 22.9%
UACC-257
  inhibition of growth at 10 µM: 30%
U-251 [4]
  inhibition of growth at 10 µM: 39.9%
SR
  inhibition of growth at 10 µM: 30.5%
KM12 [5]
  growth at 10 µM: 40%
[6]
  inhibition of growth at 10 µM: 38.6%
SNB-75
  inhibition of growth at 10 µM: 13.1%
HOP-92
  growth at 10 µM: 43.7%
T47D [7]
  inhibition of growth at 10 µM: 36.1%
MCF7 [8]
  inhibition of growth at 10 µM: 45.3%
U-251 [9]
  growth at 10 µM: 60.1%
CAKI-1
  inhibition of growth at 10 µM: 51.6%
SK-MEL-5
  growth at 10 µM: 38.7%
786-0
  growth at 10 µM: 44.5%
BT-549 [10]
  growth at 10 µM: 44%
SNB-19
  inhibition of growth at 10 µM: 40.6%
KM12 [11]
  inhibition of growth at 10 µM: 60%
DU-145
  inhibition of growth at 10 µM: 17.4%
[12]
  inhibition of growth at 10 µM: 26.9%
OVCAR-3
  growth at 10 µM: 62.6%
NCI-H322M
  growth at 10 µM: 68.5%
SN12C
  growth at 10 µM: 52.4%
SF-539 [13]
  inhibition of growth at 10 µM: 21.8%
UO-31
  inhibition of growth at 10 µM: 57.4%
NCI-H23
  growth at 10 µM: 58%
COLO 205
  inhibition of growth at 10 µM: 22%
MDA-MB-231 [14]
  inhibition of growth at 10 µM: 24.3%
A549
  inhibition of growth at 10 µM: 60.8%
SF-268
  inhibition of growth at 10 µM: 25.9%
MDA-MB-435
  inhibition of growth at 10 µM: 12.2%
NCI-H226
  growth at 10 µM: 82%
RXF 393
  growth at 10 µM: 88.5%
SF-539 [15]
  growth at 10 µM: 78.2%
UACC-62
  growth at 10 µM: 49.9%
HT-29
  growth at 10 µM: 67.9%
PC-3 [16]
  growth at 10 µM: 37.2%
SK-MEL-28
  inhibition of growth at 10 µM: 17.3%
NCI-H522
  inhibition of growth at 10 µM: 33.9%
MDA-MB-231 [17]
  growth at 10 µM: 75.7%
ACHN
  growth at 10 µM: 53.9%
LOX IMVI
  growth at 10 µM: 61.8%
[18]
  growth at 10 µM: 78.8%
[19]
  growth at 10 µM: 49.3%
K562
  growth at 10 µM: 44.1%
PC-3 [20]
  inhibition of growth at 10 µM: 62.8%
